Entries after “also recorded” stand apart in the source; their conditions may differ.
Experiments:
Format in all cases: cell-based, human
24-hydroxylase mRNA [1] = assay: RT-PCR of 24-hydroxylase mRNA in HT-29 cells; conditions: 10^−7M
Procedure: In FIG. 6B, HT-29 colon cancer cells were treated with paricalcitol (10^−7M) for 0, 6, 12 or 24 hrs and RNA was harvested. Expression of 24 hydroxylase mRNA was analysed by RT-PCR. The amounts of mRNA were normalized by comparison to 18S RNA. […] For the PCR analysis, RNA extraction and reverse transcription were done by TRIzole (Invitrogen, Carlsbad, Calif.) and reverse transcriptase (Promega, Madison, Wis.). A twenty-microliter volume of cDNA was prepared from 1 μg of RNA. cDNAs were amplified by PCR with specific primers for 24-hydroxylase and 18S. The cycle number was 25 for 18S and 32 for 24-hydroxylase. PCR product was separated on a 2% agarose gel, stained with ethidium bromide, and photographed.

24-hydroxylase mRNA [2] = assay: RT-PCR of 24-hydroxylase mRNA in HL-60 cells; conditions: paricalcitol 0.01 μM, arsenic trioxide 0.8 μM, after 24 hrs
Procedure: HL-60 and NB-4 myeloid leukemia cell lines were treated with paricalcitol (0.01 μM for HL-60, 0.1 μM for NB-4) and/or arsenic trioxide (0.8 μM for HL-60, 0.6 μM for NB-4). Control cells were treated with vehicle alone. […] Cell lysates were also made and used for Western blot which was probed with antibodies to C/EBPβ. (B) Cell lysate of HL-60 cells were made after 3 days and used for Western blot which was probed sequentially with antibodies to Bcl-2, BclXL and Bax (C) Cell lysates of HL-60 cells were made after 1, 2 or 3 days and used for Western blot which was probed sequentially with antibodies to phosphorylated ERK. (D) After pretreatment either with or without […] of PD98059 for 1 hour, HL-60 cells were treated with paricalcitol (0.01 μM) and/or arsenic trioxide (0.8 μM) for 2 days. Control cells were treated with vehicle alone. CD14 expression was measured by flow cytometry.
In FIG. 6B, HT-29 colon cancer cells were treated with paricalcitol (10^−7M) for 0, 6, 12 or 24 hrs and RNA was harvested. Expression of 24 hydroxylase mRNA was analysed by RT-PCR. The amounts of mRNA were normalized by comparison to 18S RNA. In FIG. 6C, mononuclear cells extracted from spleens of either wild type or VDR knock-out mice were treated with paricalcitol (10^−8M) for either 12 or 24 hrs, and RNA was harvested. Expression of 24 hydroxylase mRNA was analysed by RT-PCR. […]

NB-4 cells = assay: Western blot of cell lysates
Procedure: (§1) Western blot analysis was used to determine the levels of proteins involved in cell cycle and differentiation. For western blot analysis, cells were washed twice in PBS, suspended in lysis buffer [50 mM Tris (pH 8.0), 150 mM NaCl, 0.1% SDS, 0.5% sodium deoxycholate, 1% NP40, […] phenylmethylsulfonyl fluoride, […] aprotinin, […] pepstatin, and […] leupetin] and placed on ice for 30 min. After centrifugation at 15,000×g for 15 min at 4° C., the suspension was collected. Protein concentrations were quantitated using the Bio-Rad assay (Bio-Rad Labolatories, Hercules, Calif.). Whole lysates ([…]) were resolved by 4-15% SDS polyacrylamide gel, transferred to an immobilon polyvinylidene difuride membrane (Amersham Corp., Arlington Heights, Ill.), and probed sequentially with a number of antibodies (p21WAF1, p27KIP1, PTEN, and GAPDH, Santa Cruz Biotechnology Inc., Santa Cruz, Calif.). The blots were developed using the Supersignal West Pico Chemiluminescent Substrate Kit (Pierce, Rockford, Ill.).
(§2) Western blot analysis was performed as follows: cells were washed twice in PBS, suspended in lysis buffer (50 mM Tris at pH 8.0, 150 mM NaCl, 0.1% SDS, 0.5% sodium deoxycholate, 1% Nonidet P-40, phenylmethylsulfonyl fluoride at 100 μg/mL, aprotinin at 2 μg/mL, pepstatin at 1 μg/mL, and leupetin at 10 μg/mL), and placed on ice for 30 minutes. After centrifugation at 15,000×g for 15 minutes at 4° C., the suspension was collected. Protein concentrations were quantitated by using the Bio-Rad protein Assay Dye Reagent Concentrate (Bio-Rad Laboratories, Hercules, Calif.) according to the manufacture's recommendation. Whole cell lysates (40 μg) were resolved by SDS-polyacrylamide gel electrophoresis in a 4%-15% gel, transferred to a polyvinylidene difuride membrane (Immobilon, Amersham Corp., Arlington Heights, Ill.), and probed sequentially with antibodies against the following proteins: VDR, RXR, CEBPβ, Rb, Bcl-2, Bcl-XL, Bax, p-ERK, RARA, GAPDH (Santa Cruz Biotechnology Inc., Santa Cruz, CA). The blots were developed using the Supersignal West Pico Chemiluminescent Substrate Kit (Pierce, Rockford, Ill.).

HL-60 cells [3] = assay: Western blot of cell lysates; conditions: for phosphorylation of Rb / expression of Bax / expression of C/EBPβ: 3 days; for expression of Bax / expression of C/EBPβ / expression of phosphorylated-ERK: paricalcitol 0.01 μM, arsenic trioxide 0.8 μM; for expression of phosphorylated-ERK: peak after 1 day
Procedure: as §1, §2

HL-60 cells [4] = assay: CD14 expression by flow cytometry; conditions: for cell surface CD14 expression: paricalcitol 0.01 μM, arsenic trioxide 0.8 μM, 3 days
Procedure: In order to measure cell surface CD14 antigen on HL-60 cells, promyelocytic leukemia cell line, HL-60, was treated with either 1,25(OH)2D3 or paricalcitol (10^−7M) for 4 days and examined for CD14 expression by flow cytometry using CD14 antibody (DAKO, Carpinteria, Calif.), as described previously (Hisatake et al., supra, 2001). Murine IgG1 antibody (DAKO) was used as a control.
Measurement of cell surface CD14 antigen on HL-60 cells by flow cytometry using CD14 antibody (DAKO, Carpinteria, Calif.), was determined as described previously (Hisatake et al. Blood 97:2427-2433 (2001)). Murine IgG1 antibody (DAKO) was used as a control.

[5] = tested on: NB-4 myeloid leukemia cells; assay: MTT assay; conditions: 4 days exposure
PML-RARα fusion protein = assay: Western blot for PML-RARα in PR9 cells with zinc
Procedure: (A) NB-4 myeloid leukemia cell lines were treated with paricalcitol (0.1 μM) and/or arsenic trioxide (0.6 μM) for 3 days. Control cells were treated with vehicle alone. Cell lysates were made and used for Western blot which was probed sequentially with antibodies to RARA to detect the fusion protein PML-RARα. (B) U937 cells were stably transfected with either the control MT vector (U937-PMT) or the PML-RARα cDNA under the control of the Zn2^+-inducible murine metallothionein 1 promoter (PR9). Cells were treated either with (+) or without (−) Zn for 2 days. Paricalcitol and/or arsenic trioxide of the indicated doses were added to the cells. […] (C) U937-PMT and PR9 cells were treated either with or without Zn and with paricalcitol, and/or arsenic trioxide as indicated for 3 days, and CD14 expression was measured by flow cytometry.
Western blot analysis was performed as follows: cells were washed twice in PBS, suspended in lysis buffer (50 mM Tris at pH 8.0, 150 mM NaCl, 0.1% SDS, 0.5% sodium deoxycholate, 1% Nonidet P-40, phenylmethylsulfonyl fluoride at 100 μg/mL, aprotinin at 2 μg/mL, pepstatin at 1 μg/mL, and leupetin at 10 μg/mL), and placed on ice for 30 minutes. […] Protein concentrations were quantitated by using the Bio-Rad protein Assay Dye Reagent Concentrate (Bio-Rad Laboratories, Hercules, Calif.) according to the manufacture's recommendation. […]

Row | Compound | time of exposure within which 24-hydroxylase mRNA expression was induced (24-hydroxylase mRNA [1]) [h] | mRNA levels of 24-hydroxylase (24-hydroxylase mRNA [2]) | induction of PTEN (NB-4 cells; 10^−7M, 72 hr) [fold] | expression of VDR and RXR (HL-60 cells [3]) | induction of PTEN (HL-60 cells [3]; 10^−7M, 72 hr) [fold] | induction of p21WAF1 (HL-60 cells [3]; 10^−7M, 72 hr) | induction of p27KIP1 (HL-60 cells [3]; 10^−7M, 72 hr) | phosphorylation of Rb (HL-60 cells [3]) | expression of Bax (HL-60 cells [3]) | expression of C/EBPβ (HL-60 cells [3]) | expression of phosphorylated-ERK (HL-60 cells [3]) | cells induced to express CD14 (HL-60 cells [4]; 10^−7M, 96 hrs) [%] | cell surface CD14 expression (HL-60 cells [4]) | antiproliferative effect by MTT assay [5] | concentration at which PML-RARα protein expression was barely detectable (PML-RARα fusion protein; PR9 cells with zinc) | protein level of PML-RARa induced by zinc (PML-RARα fusion protein; PR9 cells, dose dependent) | protein level of PML-RAR (NB-4 cells; arsenic trioxide 0.6 μM, paricalcitol 0.1 μM, 3 days)
1 | C[C@H](/C=C/[C@H](C)C(C)(C)O)[C@H]1CC[C@H]2/C(=C/C=C3C[C@@H](O)C[C@H](O)C3)CCC[C@]12C [paricalcitol, 19-nor-1,25, (OH)2D3] | ≤ 6 | increased | 25 | not substantially changed | 7 | approximately 7 fold | about 6 fold | increased | not changed | increased | increased | 65 | increased cell surface CD14 | suppressed the cell growth in a dose-dependent manner; also recorded: sensitive |  |  | 
2 | arsenic trioxide |  |  |  | not substantially changed |  |  |  | increased | not changed | also increased its expression level | also increased |  | did not | suppressed the cell growth in a dose-dependent manner | over 0.4 μM | decreased the protein level of PML-RARa | decreased the protein level of PML-RAR
